For this series, the system named is Lupinus albus. In words: Greenhouse root penetration test in bitumen membranes (DIN CEN/TS 14416). Conditions: for No. of emerged plants average: 35 seeds planted; for No. of roots grew into bitumen average / No. of roots stopped at bitumen average / Plant height average: six weeks; for No. of roots grew thoughout bitumen average: average of 3 replicates. Here is the method:
A greenhouse study was carried out to compare the effectiveness of different herbicides to prevent root penetration in bitumen roof sealing membranes without killing the plant or adversely affecting it.
The herbicides were incorporated into bitumen 160/220 (thickness 4.5-6 mm) during a standard bitumen manufacturing process. The manufacturing process comprised a step of heating the bitumen mixture before a fibreglass grid was incorporated as a reinforcement of the bitumen membrane.
The herbicides Napropamide (N,N-Diethyl-2-(1-naphthyloxy)propanamide, CAS No. (S)-(+) isomer: 41643-36-1) and Prodiamine (2,4-dinitro-N3,N3-dipropyl-6-(trifluoromethyl)-1,3-benzenediamine, CAS No. 29091-21-2) were formulated as oil dispersion with 25% active ingredient. The (R)-2-(4-chlorine-o-tolyloxy)propionic acid ethyl-hexylester (trader name: ‘HERBITECT™’, 2 ethylhexyl-2-(R)-2-(4-chloro-o-tolylory)propionate) may be obtained from Büsscher & Hoffman, Fabrikstrasse 2, A-4470 Enns, Austria and was formulated as oil dispersion with approx. 95% active ingredient.
Resistance of the bitumen against root penetration was evaluated according to the standard test method known in the art as: DIN CEN/TS 14416 ‘Geosynthetische Dichtungsbahnen—Prüfverfahren zur Bestimmung des Widerstandes gegen Wurzeln, Deutsche Fassung CEN/TS14416:2005’. Bitumen membranes containing Napropamide and Prodiamine, respectively were evaluated at active ingredient concentrations of 0.5%, 0.25%, 0.125% and 0.0625% based on raw bitumen. […] Bitumen membranes without incorporated herbicide were used as a control. Three discs with a diameter of 25 cm were punched out of each bitumen membrane and used for the study.
Unglazed, earthenware flowerpots approx. 22 cm high were filled with a soil-mixture [soil low in calcium/TKS1 (3:1)] to 10 cm from the bottom of the pot. Bitumen discs were put on top of the soil layer and the gap between the disc and the pot was sealed with aquarium silicone sealant. The diameter of the discs was approximately that of the internal diameter halfway up the pots. The bitumen discs were covered with approximately 9 cm soil and a plastic watering pipe was insert into the soil of each pot. Thirty five lupine seeds (Lupinus albus) were planted in the soil and covered with about 1 cm of soil. Two pots filled only with soil were used as a control for seed germination and plant growth.
The seeds were growing in a greenhouse under artificial light (14 h photoperiod, 20-22° C., relative humidity 60%). The soil above the bitumen disc was watered with rain water led through the plastic pipe into the pots so that the surface of the bitumen was kept damp. The soil beneath the bitumen discs was kept moist by standing from time to time the pots in water-filled trays. After six weeks the soil of the pots was removed from the roots by gentle running water. The bottom side of bitumen membranes was inspected to see whether any roots have grown through the bitumen, and the upper side was examined to assess the number of roots penetrating the bitumen and the depth of penetration. During the assessments, bitumen discs, roots, and above ground parts of the plants were recorded.

Where [1] appears, read: 0.0625% active ingredient based on raw bitumen.
The mark [2] stands for this setting: 0.0625% active ingredient, replicate 1.
The mark [3] stands for this setting: 0.0625% active ingredient, replicate 2.
Where [4] appears, read: 0.0625% active ingredient, replicate 3.
[5] abbreviates: 0.125% active ingredient based on raw bitumen.
[6] abbreviates: 0.125% active ingredient, replicate 1.
[7] abbreviates: 0.125% active ingredient, replicate 2.
The mark [8] stands for this setting: 0.125% active ingredient, replicate 3.
Setting [9] is: 0.25% active ingredient based on raw bitumen.
Setting [10] is: 0.25% active ingredient, replicate 1.
[11] abbreviates: 0.25% active ingredient, replicate 2.
The mark [12] stands for this setting: 0.25% active ingredient, replicate 3.
The mark [13] stands for this setting: 0.5% active ingredient based on raw bitumen.
The mark [14] stands for this setting: 0.5% active ingredient, replicate 1.
The mark [15] stands for this setting: 0.5% active ingredient, replicate 2.
[16] abbreviates: 0.5% active ingredient, replicate 3.
Where [17] appears, read: 0.38% active ingredient based on raw bitumen.

Turning to `CCCN(CCC)c1c([N+](=O)[O-])cc(C(F)(F)F)c(N)c1[N+](=O)[O-]` [Prodiamine, 2,4-dinitro-N3,N3-dipropyl-6-(trifluoromethyl)-1,3-benzenediamine], the “No. of emerged plants average” value is 33.7 under setting [1], 34.7 under setting [5], 34.3 under setting [9] and 34.3 under setting [13]. Further, the “No. of roots grew into bitumen average” value by setting is: under setting [1], “approx. >50”; under setting [5], “approx. >50”; under setting [9], “approx. >50”; under setting [13], “approx. >50”. For the same compound, the “No. of roots stopped at bitumen average” value by setting is: under setting [1], “approx. >50”; under setting [5], “approx. >50”; under setting [9], “approx. >50”; under setting [13], “approx. >50”. Also, the Plant height average amounted to 33.7 cm under setting [1], 32.3 cm under setting [5], 31.0 cm under setting [9] and 34.0 cm under setting [13]. In addition, the “No. of roots grew thoughout bitumen average” value was 20.3 (0.0625% active ingredient), 12.0 (0.125% active ingredient), 6.7 (0.25% active ingredient) and 2.7 (0.5% active ingredient). Also, the “No. of roots grew thoughout bitumen (3 replicates shown)” value under setting [2] was 27; the “No. of roots grew thoughout bitumen (3 replicates shown)” value under setting [3] amounted to 16; the “No. of roots grew thoughout bitumen (3 replicates shown)” value under setting [4] stood at 18; the “No. of roots grew thoughout bitumen (3 replicates shown)” value under setting [6] was 12; the “No. of roots grew thoughout bitumen (3 replicates shown)” value under setting [7] turned out to be 18; the “No. of roots grew thoughout bitumen (3 replicates shown)” value under setting [8] was determined as 6. Besides, the “No. of roots grew thoughout bitumen (3 replicates shown)” value under setting [10] is given as 9; the “No. of roots grew thoughout bitumen (3 replicates shown)” value under setting [11] is given as 6; the “No. of roots grew thoughout bitumen (3 replicates shown)” value under setting [12] amounted to 5; the “No. of roots grew thoughout bitumen (3 replicates shown)” value under setting [14] stood at 1; the “No. of roots grew thoughout bitumen (3 replicates shown)” value under setting [15] turned out to be 3; the “No. of roots grew thoughout bitumen (3 replicates shown)” value under setting [16] is given as 4. The “Effectiveness to restrict root growth throughout bitumen” value (compared to Napropamide and the standard product HERBITECT) is “slightly less effective”.

Turning to `CCN(CC)C(=O)C(C)Oc1cccc2ccccc12` (centres unmarked) [Napropamide, N,N-Diethyl-2-(1-naphthyloxy)propanamide], the “No. of roots grew into bitumen average” value was “approx. >50” under setting [1], “approx. >50” under setting [5], 40.0 under setting [9] and 30.3 under setting [13]. The “No. of roots stopped at bitumen average” value by setting is: under setting [1], “approx. >50”; under setting [5], “approx. >50”; under setting [9], “approx. >50”; under setting [13], “approx. >50”. Moreover, the “No. of roots grew thoughout bitumen average” value is recorded as 1.3 (0.0625% active ingredient), 0.7 (0.125% active ingredient), 0.3 (0.25% active ingredient) and 0.3 (0.5% active ingredient). Besides, the “No. of roots grew thoughout bitumen (3 replicates shown)” value was 1 under setting [2]; 1 under setting [3]; 2 under setting [4]; 0 under setting [6]; 2 under setting [7]; 0 under setting [8]. Also, the “No. of roots grew thoughout bitumen (3 replicates shown)” value is, setting by setting: under setting [10], 0; under setting [11], 0; under setting [12], 1; under setting [14], 1; under setting [15], 0; under setting [16], 0. Besides, where the note is “at 0.5% and 0.25%, respectively”, the “Penetration of upper side of bitumen compared to the untreated bitumen” value is recorded as “penetrated to less extent”. The “Root elongation through bitumen” value (at 0.5% and 0.25%, exception in a replicate showing one root penetration) was “stopped completely”. In addition, for the setting “in vivo”, the “Harm to the remaining plant parts” value is “not harmful”. Besides, under “overall conclusion of the study”, the “Effectiveness to prevent root penetration of bitumen membranes” value is recorded as “highly effective”.

As for `CCCCC(CC)COC(=O)[C@@H](C)Oc1ccc(Cl)cc1C` (stereo partly drawn) [Herbitect, (R)-2-(4-chlorine-o-tolyloxy)propionic acid ethyl-hexylester], under setting [17], the “No. of emerged plants average” value turned out to be 33.0, the “No. of roots grew into bitumen average” value was found to be 46.7, the “No. of roots stopped at bitumen average” value is recorded as “approx. >50” and the Plant height average is on record as 34.0 cm. For the same compound, the “No. of roots grew thoughout bitumen average” value (0.38% active ingredient) was 0. Also, for the setting “0.38% active ingredient, replicate 1”, the “No. of roots grew thoughout bitumen (3 replicates shown)” value turned out to be 0. Besides, for the setting “0.38% active ingredient, replicate 2”, the “No. of roots grew thoughout bitumen (3 replicates shown)” value turned out to be 0. For the setting “0.38% active ingredient, replicate 3”, the “No. of roots grew thoughout bitumen (3 replicates shown)” value was 0. The “Penetration of upper side of bitumen compared to the untreated bitumen” value (at 0.38%) is listed as “penetrated to less extent”. In addition, for the setting “standard product, 0.38%”, the “Root penetration throughout bitumen” value is “without any root penetration”.

For the origin of these results see patent US20120118197A1, “BUILDING MATERIALS RESISTANT TO ROOT PENETRATION AND METHODS FOR MAKING THE SAME” (LANXESS DEUTSCHLAND GMBH, priority 2008, published 2012).
